System: human Cav3.1 Cav3.2 or Cav3.3 channel
Assay: In vitro assay T channel (FLIPR, Ca2+-induced fluorescence)
Type: cell-based
Details: HEK293 cells expressing human Cav3.1 Cav3.2 or Cav3.3; 10 mM Ca2+; determined up to 10 μM; read-out: T channel antagonistic activity IC50
Method: Human embryonic kidney (HEK293) cells expressing the human Cav3.1 Cav3.2 or Cav3.3 channel, respectively, are grown in culture medium (DMEM containing 10% heat-inactivated fetal calf serum (FCS), 100 U/ml penicillin, 100 μg/ml streptomycin and 1 mg/ml G418). The cells are seeded at 20.000 cells/well into 384-well black clear bottom sterile plates (poly-L-lysine-coated, Becton Dickinson). The seeded plates are incubated overnight at 37° C. in 5% CO2. The Ca^2+ solution is prepared as 100 mM stock solution in 100 mM tetraethylammoniumchloride (TEA-chloride), 50 mM HEPES, 2.5 mM CaCl2, 5 mM KCl, 1 mM MgCl2, adjusted to pH 7.2 with TEA-hydroxide, for use in the assay at a final concentration of 10 mM. […] Fluorescence is measured for each well at 2 second intervals for 8 minutes, and the area under the curve of each fluorescence peak is compared to the area of the fluorescence peak induced by 10 mM Ca^2+ with vehicle in place of antagonist.

Structure (SMILES)	IC50 [nM]
COCC(=O)O[C@@]1(CCN(C)CCCc2nc3ccccc3[nH]2)C[C@H]2CC[C@@H]1c1ccccc12 (relative stereo) [Example 1A, rac-Methoxy-acetic acid (1R*,8R*,9R*)-9-(2-{[3-(1H-benzoimidazol-2-yl)-propyl]-methyl-amino}-ethyl)-tricyclo[6.2.2.0^2,7]dodeca-2,4,6-trien-9-yl ester]	1530
CC(C)C(=O)O[C@@]1(CCN(C)CCCc2nc3ccccc3[nH]2)C[C@H]2CCC[C@@H]1c1ccccc12 (relative stereo) [Example 10B, rac-Isobutyric acid (1R*,8R*,12R*)-12-(2-{[3-(1H-benzoimidazol-2-yl)-propyl]-methyl-amino}-ethyl)-tricyclo[6.3.2.0^2,7]trideca-2,4,6-trien-12-yl ester]	1310
CO[C@@]1(CCN(C)CCCc2nc3ccccc3[nH]2)C[C@H]2CC[C@@H]1c1ccccc12 (relative stereo) [Example 4, rac-(1R*,8R*,9R*)-[3-(1H-Benzoimidazol-2-yl)-propyl]-[2-(9-methoxy-tricyclo[6.2.2.0^2,7]dodeca-2,4,6-trien-9-yl)-ethyl]-methyl-amine]	1220
O[C@@]1(CCN2CCCC(c3nc4ccccc4[nH]3)C2)C[C@H]2CC[C@@H]1c1ccccc12 (relative stereo) [Example 7, (1R*,8R*,9R*)-9-{2-[(3RS)-3-(1H-Benzoimidazol-2-yl)-piperidin-1-yl]-ethyl}-tricyclo[6.2.2.0^2,7]dodeca-2,4,6-trien-9-ol]	2260
CN(CCCc1nc2ccccc2[nH]1)CCC1(O)CC2CCCC1c1ccccc12 (single isomer, unassigned) [Example 11, (1S,8S,12S)-12-(2-{[3-(1H-Benzoimidazol-2-yl)-propyl]-methyl-amino}-ethyl)-tricyclo[6.3.2.0^2,7]trideca-2,4,6-trien-12-ol or (1R,8R,12R)-12-(2-{[3-(1H-benzoimidazol-2-yl)-propyl]-methyl-amino}-ethyl)-tricyclo[6.3.2.0^2,7]trideca-2,4,6-trien-12-ol]	521
COCC(=O)O[C@@]1(CCN(C)CCCc2nc3ccccc3[nH]2)C[C@H]2CCC[C@@H]1c1ccccc12 (relative stereo) [Example 10A, rac-Methoxy-acetic acid (1R*,8R*,12R*)-12-(2-{[3-(1H-benzoimidazol-2-yl)-propyl]-methyl-amino}-ethyl)-tricyclo[6.3.2.0^2,7]trideca-2,4,6-trien-12-yl ester]	814
CN(CCCc1nc2ccccc2[nH]1)CC[C@]1(OC(=O)C2CC2)C[C@H]2CC[C@@H]1c1ccccc12 (relative stereo) [Example 1C, rac-Cyclopropanecarboxylic acid (1R*,8R*,9R*)-9-(2-{[3-(1H-benzoimidazol-2-yl)-propyl]-methyl-amino}-ethyl)-tricyclo[6.2.2.0^2,7]dodeca-2,4,6-trien-9-yl ester]	969
CN(CCCc1nc2ccccc2[nH]1)CCC1(O)CC2CCCC1c1ccccc12 (single isomer, unassigned) [Example 12, (1S,8S,12S)-12-(2-{[3-(1H-Benzoimidazol-2-yl)-propyl]-methyl-amino}-ethyl)-tricyclo[6.3.2.0^2,7]trideca-2,4,6-trien-12-ol or (1R,8R,12R)-12-(2-{[3-(1H-benzoimidazol-2-yl)-propyl]-methyl-amino}-ethyl)-tricyclo[6.3.2.0^2,7]trideca-2,4,6-trien-12-ol]	631
CN(CCCc1nc2ccccc2[nH]1)CC[C@]1(O)C[C@H]2CC[C@@H]1c1ccccc12 (relative stereo) [Example 1, rac-(1R*,8R*,9R*)-9-(2-{[3-(1H-Benzoimidazol-2-yl)-propyl]-methyl-amino}-ethyl)-tricyclo[6.2.2.0^2,7]dodeca-2,4,6-trien-9-ol]	2850
COc1cccc2[nH]c(CCCN(C)CCC3(O)CC4CCCC3c3ccccc34)nc12 (single isomer, unassigned) [Example 13, (1S,8S,12S)-12-(2-{[3-(4-Methoxy-1H-benzoimidazol-2-yl)-propyl]-methyl-amino}-ethyl)-tricyclo[6.3.2.0^2,7]trideca-2,4,6-trien-12-ol or (1R,8R,12R)-12-(2-{[3-(4-methoxy-1H-benzoimidazol-2-yl)-propyl]-methyl-amino}-ethyl)-tricyclo[6.3.2.0^2,7]trideca-2,4,6-trien-12-ol]	1220
O[C@@]1(CCN2CCC(c3ccccc3)(c3nc4ccccc4[nH]3)CC2)C[C@H]2CC[C@@H]1c1ccccc12 (relative stereo) [Example 8, rac-(1R*,8R*,9R*)-9-{2-[4-(1H-Benzoimidazol-2-yl)-4-phenyl-piperidin-1-yl]-ethyl}-tricyclo[6.2.2.0^2,7]dodeca-2,4,6-trien-9-ol]	953
CN(CCCc1nc2ccccc2[nH]1)CC[C@]1(O)C[C@H]2CCC[C@@H]1c1ccccc12 (relative stereo) [Example 10, rac-(1R*,8R*,12R*)-12-(2-{[3-(1H-Benzoimidazol-2-yl)-propyl]-methyl-amino}-ethyl)-tricyclo[6.3.2.0^2,7]trideca-2,4,6-trien-12-ol]	1580
COc1ccc(C)c2[nH]c(CCCN(C)CCC3(OC(=O)C(C)C)CC4CCCC3c3ccccc34)nc12 [Example 14A, Isobutyric acid (1S,8S,12S)-12-(2-{[3-(4-Methoxy-7-methyl-1H-benzoimidazol-2-yl)-propyl]-methyl-amino}-ethyl)-tricyclo[6.3.2.0^2,7]trideca-2,4,6-trien-12-yl ester or isobutyric acid (1R,8R,12R)-12-(2-{[3-(4-methoxy-7-methyl-1H-benzoimidazol-2-yl)-propyl]-methyl-amino}-ethyl)-tricyclo[6.3.2.0^2,7]trideca-2,4,6-trien-12-yl ester]	191
CC(C)C(=O)O[C@@]1(CCN2CCC(c3ccccc3)(c3nc4ccccc4[nH]3)CC2)C[C@H]2CC[C@@H]1c1ccccc12 (relative stereo) [Example 8A, rac-Isobutyric acid (1R*,8R*,9R*)-9-{2-[4-(1H-benzoimidazol-2-yl)-4-phenyl-piperidin-1-yl]-ethyl}-tricyclo[6.2.2.0^2,7]dodeca-2,4,6-trien-9-yl ester]	6100
CC(C)C(=O)OC1(CCN(C)CCCc2nc3ccccc3[nH]2)CC2CCC1c1ccccc12 [Example 2A, Isobutyric acid (1S,8S,9S)-9-(2-{[3-(1H-benzoimidazol-2-yl)-propyl]-methyl-amino}-ethyl)-tricyclo[6.2.2.0^2,7]dodeca-2,4,6-trien-9-yl ester or isobutyric acid (1R,8R,9R)-9-(2-{[3-(1H-benzoimidazol-2-yl)-propyl]-methyl-amino}-ethyl)-tricyclo[6.2.2.0^2,7]dodeca-2,4,6-trien-9-yl ester]	1790
COc1ccc(C)c2[nH]c(CCCN(C)CCC3(O)CC4CCCC3c3ccccc34)nc12 (single isomer, unassigned) [Example 14, (1S,8S,12S)-12-(2-{[3-(4-Methoxy-7-methyl-1H-benzoimidazol-2-yl)-propyl]-methyl-amino}-ethyl)-tricyclo[6.3.2.0^2,7]trideca-2,4,6-trien-12-ol or (1R,8R,12R)-12-(2-{[3-(4-methoxy-7-methyl-1H-benzoimidazol-2-yl)-propyl]-methyl-amino}-ethyl)-tricyclo[6.3.2.0^2,7]trideca-2,4,6-trien-12-ol]	736
CN(CCCc1nc2ccccc2[nH]1)CC[C@@]1(O)C[C@H]2CC[C@@H]1c1ccccc12 (relative stereo) [Example 5, rac-(1R*,8R*,9S*)-9-(2-{[3-(1H-Benzoimidazol-2-yl)-propyl]-methyl-amino}-ethyl)-tricyclo[6.2.2.0^2,7]dodeca-2,4,6-trien-9-ol]	> 10000
CC(C)C(=O)OC1(CCN(C)CCCc2nc3ccccc3[nH]2)CC2CCCC1c1ccccc12 [Example 12A, Isobutyric acid (1S,8S,12S)-12-(2-{[3-(1H-Benzoimidazol-2-yl)-propyl]-methyl-amino}-ethyl)-tricyclo[6.3.2.0^2,7]trideca-2,4,6-trien-12-yl ester or isobutyric acid (1R,8R,12R)-12-(2-{[3-(1H-benzoimidazol-2-yl)-propyl]-methyl-amino}-ethyl)-tricyclo[6.3.2.0^2,7]trideca-2,4,6-trien-12-yl ester]	783
CN(CCCc1nc2ccccc2[nH]1)CCC1(O)CC2CCC1c1ccccc12 (single isomer, unassigned) [Example 3, (1S,8S,9S)-9-(2-{[3-(1H-Benzoimidazol-2-yl)-propyl]-methyl-amino}-ethyl)-tricyclo[6.2.2.0^2,7]dodeca-2,4,6-trien-9-ol or (1R,8R,9R)-9-(2-{[3-(1H-benzoimidazol-2-yl)-propyl]-methyl-amino}-ethyl)-tricyclo[6.2.2.0^2,7]dodeca-2,4,6-trien-9-ol]	2250
O[C@@]1(CCN2CCC(c3nc4ccccc4[nH]3)CC2)C[C@H]2CC[C@@H]1c1ccccc12 (relative stereo) [Example 6, rac-(1R*,8R*,9R*)-9-{2-[4-(1H-Benzoimidazol-2-yl)-piperidin-1-yl]-ethyl}-tricyclo[6.2.2.0^2,7]dodeca-2,4,6-trien-9-ol]	1360
CC(C)C(=O)O[C@@]1(CCN2CCCC(c3nc4ccccc4[nH]3)C2)C[C@H]2CC[C@@H]1c1ccccc12 (relative stereo) [Example 7A, Isobutyric acid (1R*,8R*,9R*)-9-{2-[(3RS)-3-(1H-benzoimidazol-2-yl)-piperidin-1-yl]-ethyl}-tricyclo[6.2.2.0^2,7]dodeca-2,4,6-trien-9-yl ester]	1110
